One data set addresses human FXIa (Homo sapiens (Human), UniProt P03951). The data set can be described thus: In vitro activated factor XI (FXIa) inhibition test. It is filed as biochemical. The note with it: 0.35 μg/mL human FXIa, substrate S-2366 300 μmol/L, 37° C., 10 minutes, OD 405 nm; read-out: FXIa inhibitory activity IC50. The method, then:
To the substrate, S-2366 (pyroGlu-Pro-Arg-pNA.HCl) was added to a final concentration of 300 μmol/L. After the reaction had progressed, the absorbance at OD 405 nm was measured.

Data set [1] can be described thus: Ester metabolism stabilization test: human liver stabilization test. It is filed as in vitro ADME. The settings on record: human liver S9, NADPH, 37° C., 30 minutes. As to the method: A reaction solution prepared by mixing 5 μL of human liver S9 (manufactured by Xenotech, 20 mg/mL), 20 μL of 500 mmol/L Kpi (pH7.4), 40 μL of 5 mmol/L NADPH (manufactured by Oriental Yeast Co., Ltd.) aqueous solution, and 133 μL of ion exchange water was added to 2 μL of a DMSO solution containing 100 μmol/L test substance, and the thus obtained mixture was then incubated at 37° C. for 30 minutes. After completion of the incubation, 600 μL of acetonitrile was added to the reaction solution, so that the metabolic reaction was terminated. The residual percentage of the test substance was measured using LC (LC-20A manufactured by Shimadzu Corporation) and -MS (API4000 manufactured by AB Sciex). • (2) Stabilization in Human Plasma Test

The subject of data set [2] is endogenous coagulation pathway. The data set can be described thus: Activated partial thromboplastin time (aPTT) of blood sample in rabbit antithrombotic test. It is filed as in vivo. The note with it: i.v. As to the method:
In order to measure the activated partial thromboplastin time (aPTT) of the blood sample, which was to be used as an indicator of an endogenous coagulation pathway, 2 minutes after the administration of the test agent or the vehicle, blood was collected, and plasma was then prepared using 3.2% sodium citrate. The prepared plasma was incubated at 37° C. for 7 minutes, and an STA reagent Cephascreen (used for aPTT measurement; manufactured by Roche Diagnostics) was added in an equal amount to the resulting plasma, and the obtained mixture was further incubated for 3 minutes. Thereafter, STA calcium chloride (manufactured by Roche Diagnostics) was added in an equal amount to the resultant, and the time required until coagulation was then measured.

The subject of data set [3] is rabbit model with venous thrombus. The data set can be described thus: Rabbit in vivo antithrombotic action evaluation test (venous thrombus model), thrombus weight. The settings on record: i.v. The text has this: A rabbit model with venous thrombus was produced by modifying the report of Wienen et al. (Wienen W. et al., J. Thromb. Haemost. 5:1237-1242 (2007)). A male rabbit (JW, 2-4 kg) was narcotized by inhalation of isoflurane (ISOFLU®, manufactured by DS Pharma Animal Health) (inductive anesthesia: 4%, continuous anesthesia: 1.5% to 2.5%). For intravenous administration of a test agent and blood collection, catheters were inserted into the left femoral vein and the left femoral artery. The left external jugular vein was exposed (2 cm) from a branch of the facial vein, the microvascular branch was then ligated, and a catheter was then inserted into the posterior facial vein. The external jugular vein (2 cm) exposed from each of an anterior facial vein branch and a facial vein branch was ligated with an artery clamp, and blood was then removed from a catheter left in the posterior facial vein. Blood in the blood vessel was washed with a normal saline, and 0.5% polidocanol (manufactured by Sigma) was injected into the blood vessel. It was then left for 5 minutes, so that the occurrence of a disorder in vascular endothelium was provoked. Thereafter, 0.5% polidocanol was removed, the inside of the blood vessel was then washed with a normal saline, and the artery clamp was then removed. The external jugular vein (2 cm) exposed from the facial vein branch, together with an injection needle 21G (manufactured by Terumo), was ligated with a silk thread, so that the inner diameter of the blood vessel was reduced to 0.8 mm. Twenty-five minutes after recirculation of the blood flow, the external jugular vein (2 cm) exposed from the facial vein branch was excised, and the wet weight and dry weight of a thrombus formed in the blood vessel were measured. A test agent or a vehicle was administered to the rabbit 2 minutes before recirculation of the blood flow.

Data set [4] in a line: Ester metabolism stabilization test: stabilization in human plasma test. The class given is in vitro ADME. The settings on record: 37° C., 30 minutes. The method, then: 198 μL of human plasma (manufactured by Cosmo Bio) was added to 2 μL of a DMSO solution containing 100 μmol/L test substance, and the obtained mixture was then incubated at 37° C. for 30 minutes. After completion of the incubation, 600 μL of acetonitrile was added to the reaction solution, so that the metabolic reaction was terminated. The residual percentage of the test substance was measured using LC (LC-20A manufactured by Shimadzu Corporation) and -MS (API4000 manufactured by AB Sciex).

Where a name gives a salt, the structure may show the parent alone.

Sequence of human FXIa (P03951 388-625): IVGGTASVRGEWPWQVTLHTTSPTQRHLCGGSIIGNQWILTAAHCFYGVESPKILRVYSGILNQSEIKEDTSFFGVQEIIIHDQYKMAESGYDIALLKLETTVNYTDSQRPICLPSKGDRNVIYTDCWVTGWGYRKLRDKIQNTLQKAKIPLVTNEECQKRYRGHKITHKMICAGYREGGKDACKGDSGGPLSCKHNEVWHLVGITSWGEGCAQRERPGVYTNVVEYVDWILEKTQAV
Sequence of human FXIa (P03951 19-387 partner): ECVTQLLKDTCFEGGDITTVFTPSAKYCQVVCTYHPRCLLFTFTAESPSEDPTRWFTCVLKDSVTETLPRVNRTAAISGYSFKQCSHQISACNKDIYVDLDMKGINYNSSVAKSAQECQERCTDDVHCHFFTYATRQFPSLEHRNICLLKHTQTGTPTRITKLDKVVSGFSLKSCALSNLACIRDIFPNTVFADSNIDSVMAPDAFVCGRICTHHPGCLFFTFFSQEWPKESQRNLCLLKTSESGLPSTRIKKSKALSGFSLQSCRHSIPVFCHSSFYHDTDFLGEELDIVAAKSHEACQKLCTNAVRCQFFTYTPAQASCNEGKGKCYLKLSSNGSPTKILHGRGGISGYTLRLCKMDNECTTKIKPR

Regarding `N[C@H](CF)[C@H]1CC[C@H](C(=O)N2CC[C@H](c3ccc(F)cc3)[C@H]2C(=O)Nc2ccc3[nH]c(C(=O)O)cc3c2)CC1` [Example 178], the IC50 at human FXIa came to 33 nM. For the molecule `Cc1oc(=O)oc1COC(=O)c1cc2cc(NC(=O)[C@@H]3[C@@H](c4ccccc4)CCN3C(=O)[C@H]3CC[C@H]([C@H](N)CF)CC3)ccc2[nH]1` [Example 171], the “Residual percentage (%) Human liver S9” value in data set [1] came to 18%. Turning to `NC[C@H]1CC[C@H](C(=O)N2CCC(c3ccccc3)[C@H]2C(=O)Nc2ccc3[nH]c(C(=O)O)cc3c2)CC1` (stereo partly shown) [Example 23], the IC50 at human FXIa was 9 nM.

On to `COC1CCC([C@@H]2CCN(C(=O)[C@H]3CC[C@H]([C@H](N)CF)CC3)[C@@H]2C(=O)Nc2ccc3oc(C(=O)OCC(C)C)cc3c2)CC1` (stereo partly shown) [Example 201], for which the “Residual percentage (%) Human liver S9” value in data set [1] is 45%. The same measure, in the same setting: the figure for `CC(OC(=O)OC1CCCCC1)OC(=O)c1cc2cc(NC(=O)[C@@H]3[C@@H](c4ccccc4)CCN3C(=O)[C@H]3CC[C@H]([C@H](N)CF)CC3)ccc2[nH]1` (stereo partly shown) [Example 120] is 4.9%; for `CC(C)OC(=O)OC(C)OC(=O)c1cc2cc(NC(=O)[C@@H]3[C@H](C4CCCCC4)CCN3C(=O)[C@H]3CC[C@H]([C@H](N)CF)CC3)ccc2[nH]1` (stereo partly shown) [Example 128] it is 47%.

With `CN(C(=O)C1C(c2ccccc2)CCN1C(=O)[C@H]1CC[C@H](CN)CC1)c1ccc2[nH]c(C(=O)O)cc2c1` (stereo partly drawn) [Example 5, 5-{cis-1-[trans-4-(Aminomethyl)cyclohexanecarbonyl]-N-methyl-3-phenylpyrrolidine-2-carboxamide}-1H-indole-2-carboxylic acid trifluoroacetate], the IC50 at human FXIa was determined as 125 nM. Same read-out and setting: with `N[C@H](CF)[C@H]1CC[C@H](C(=O)N2CC[C@@H](C3CCCCC3)[C@H]2C(=O)Nc2ccc3[nH]c(C(=O)O)cc3c2)CC1` [Example 99] the figure was 6 nM.

As to `COCCCOC(=O)c1cc2cc(NC(=O)[C@@H]3[C@H](C4CCCCC4)CCN3C(=O)[C@H]3CC[C@H]([C@H](N)CF)CC3)ccc2o1` [Example 82], in data set [1], the “Residual percentage (%) Human liver S9” value turned out to be 5.8%.

Regarding `N[C@H](CF)[C@H]1CC[C@H](C(=O)N2CCC(C3CCCCC3)[C@H]2C(=O)Nc2ccc3oc(C(=O)O)cc3c2)CC1` (single isomer, unassigned) [Example 53], the “aPTT (% vehicle)” value is recorded as 103 % vehicle in data set [2] (dose 0.1 mg/kg), 117 % vehicle in data set [2] (dose 0.3 mg/kg), 140 % vehicle in data set [2] (dose 1.0 mg/kg) and 166 % vehicle in data set [2] (dose 3.0 mg/kg). In addition, the “Thrombus (% inhibition)” value in data set [3] (dose 0.1 mg/kg) turned out to be 25 % inhibition; in data set [3] (dose 0.3 mg/kg), 56 % inhibition; in data set [3] (dose 1.0 mg/kg) it was 79 % inhibition; in data set [3] (dose 3.0 mg/kg), 80 % inhibition. Turning to `NC(CF)[C@H]1CC[C@H](C(=O)N2CC[C@@H](c3ccc(F)cc3)[C@H]2C(=O)Nc2ccc3[nH]c(C(=O)O)cc3c2)CC1` (stereo partly shown) [Example 38], the IC50 on human FXIa was 30 nM. In the case of `CC(C)C(=O)O[C@@H](C)OC(=O)N[C@H](CF)[C@H]1CC[C@H](C(=O)N2CC[C@@H](C3CCCCC3)[C@H]2C(=O)Nc2ccc(-c3nnn[nH]3)cc2)CC1` [Example 205, (1R)-1-({[(1S)-1-(trans-4-{[(2S,3S)-3-Cyclohexyl-2-{[4-(1H-tetrazol-5-yl)phenyl]carbamoyl}pyrrolidin-1-yl]carbonyl}cyclohexyl)-2-fluoroethyl]carbamoyl}oxy)ethyl 2-methylpropanoate], in data set [4], the “Residual percentage (%) Human plasma” value was found to be 60%. Further, in data set [1], the “Residual percentage (%) Human liver S9” value was found to be 3.5%. Take `CCC(=O)OC(OC(=O)c1cc2cc(NC(=O)[C@@H]3[C@@H](c4ccccc4)CCN3C(=O)[C@H]3CC[C@H]([C@H](N)CF)CC3)ccc2[nH]1)C(C)C` (stereo partly shown) [Example 125]: the “Residual percentage (%) Human liver S9” value in data set [1] stood at 5.6%. Turning to `N[C@H](CF)[C@H]1CC[C@H](C(=O)N2CC[C@@H](C3CCCCC3)[C@H]2C(=O)Nc2ccc3oc(C(=O)OCC4CCOCC4)cc3c2)CC1` [Example 141], the “Residual percentage (%) Human liver S9” value in data set [1] worked out at 17%. Regarding `Cc1c(C(=O)O)[nH]c2ccc(NC(=O)[C@@H]3[C@H](C4CCCCC4)CCN3C(=O)[C@H]3CC[C@H]([C@H](N)CF)CC3)cc12` [Example 113], the IC50 at human FXIa turned out to be 145 nM. For the molecule `COc1ccc([C@H]2CCN(C(=O)[C@H]3CC[C@H]([C@H](N)CF)CC3)[C@@H]2C(=O)Nc2ccc3[nH]c(C(=O)O)cc3c2)cc1` [Example 170], the IC50 on human FXIa was determined as 76 nM. The same measure, in the same setting: with `N[C@H](CF)[C@H]1CC[C@H](C(=O)N2CC[C@@H](c3ccccc3)[C@H]2C(=O)Nc2ccc3[nH]c(C(=O)O)c(Cl)c3c2)CC1` [Example 186] the figure was 60 nM.

In general, IC50 refers to the midpoint of a concentration-inhibition curve.

The record behind these values is patent publication US9758480B2, “1-(cycloalkyl-carbonyl)proline derivative” (SUMITOMO DAINIPPON PHARMA CO., LTD., priority 2012, dated 2017).
